This note sets out measurements from patent US11904008B2, “Preparation of live vaccines” (priority 2012, dated 2024).

Converted amounts (≈) assume the structure as drawn.

Assay in all cases: MIC values of wild type strains
Assay type in all cases: cell-based

Experiment [1] has as its system Campylobacter coli WS I. As to conditions: wild type strain Campylobacter coli WS I; unit assumed.
Experiment [2] deals with Campylobacter coli WS II. As to conditions: wild type strain Campylobacter coli WS II; unit assumed.
In experiment [3] the test system is Campylobacter jejuni WS I. The settings on record: wild type strain Campylobacter jejuni WS I; unit assumed.
For experiment [4], the system named is Campylobacter jejuni WS II. As to conditions: wild type strain Campylobacter jejuni WS II; unit assumed.
Experiment [5] deals with Salmonella enterica subsp. enterica serovar Virchow. As to conditions: wild type strain Salmonella Virchow; unit assumed.
Experiment [6] relates to Salmonella enterica subsp. enterica serovar Infantis. The settings on record: wild type strain Salmonella Infantis; unit assumed.
Experiment [7] relates to Salmonella enterica subsp. enterica serovar Hadar. As to conditions: wild type strain Salmonella Hadar; unit assumed.
Experiment [8] relates to Salmonella paratyphi B (var. L-tartrate+). The settings on record: wild type strain Salmonella paratyphi B (var. L-tartrate+); unit assumed.

In the case of `C[C@@H]1O[C@@H]1P(=O)(O)O` [fosfomycin], the minimum inhibitory concentration (MIC) in experiment [1], in experiment [2], in experiment [3] and in experiment [4] was 25 µg/mL (≈ 181 µM) throughout.

In the case of `[H]/N=C(/N)N[C@H]1[C@H](O)[C@@H](O)[C@H](O[C@@H]2O[C@@H](C)[C@](O)(C=O)[C@H]2O[C@@H]2O[C@@H](CO)[C@H](O)[C@@H](O)[C@@H]2NC)[C@@H](N/C(N)=N\[H])[C@@H]1O` [Streptomycin], the minimum inhibitory concentration (MIC) (in general, the smallest concentration in the dilution series that meets the test's criterion for growth inhibition) in experiment [5] was 12.5 µg/mL (≈ 21.5 µM); in experiment [6] it was 12.5 µg/mL (≈ 21.5 µM); in experiment [7] it was 25 µg/mL (≈ 43 µM); in experiment [8], 30 µg/mL (≈ 51.6 µM); in experiment [1] it was 1 µg/mL (≈ 1.72 µM); in experiment [2] it was 1 µg/mL (≈ 1.72 µM). The MIC in experiment [3] and in experiment [4] was 2 µg/mL (≈ 3.44 µM) each time.
